Assays:
Assay in all cases: Pre-emergent herbicidal activity (Table A)
Assay type in all cases: in vivo
Annual Bluegrass = details: pre-emergence, Anbg, 11.2 kg/ha, 10-14 days, read-out: herbicidal rating (% inhibition)
Description: (§1) Tables A and B summarize results of tests conducted to determine the pre-emergent herbicidal activity of the compounds of this invention. The herbicidal ratings used in Tables A and B were assigned according to a scale based on the percent inhibition of each plant species. The herbicide rating symbols in Tables A and B are defined as follows: […]
(§2) One set of pre-emergent tests was conducted as follows:
(§3) Topsoil was placed in a pan and compacted to a depth of 0.95 to 1.27 cm. from the top of the pan. A predetermined number of seeds of each of several monocotyledonous and dicotyledonous annual plant species and/or vegetative propagules of various perennial plant species were placed on top of the soil. The soil required to level fill a pan after seeding or adding vegetative propagules was weighed into another pan. A known amount of the test compound dissolved or suspended in an organic solvent or water and applied in acetone or water as a carrier was thoroughly mixed with this cover soil, and the herbicide/soil mixture was used as a cover layer for the previously prepared pan. In Table A below the amounts of active ingredient were all equivalent to an application rate of 11.2 kilograms/hectare (kg/ha). After treatment, the pans were moved to a greenhouse bench where they were watered as needed to give adequate moisture for germination and growth.
(§4) Approximately 10-14 days (usually 11 days) after planting and treating, the plants were observed and the results recorded.
(§5) The plant species usually regarded as weeds which were utilized in one set of pre-emergent activity tests, the data for which are shown in Table A, are identified by letter headings printed diagonally above the columns according to the following legend: […]

Indian Mustard = details: Brassica juncea, pre-emergence, Inmu, 11.2 kg/ha, 10-14 days, read-out: herbicidal rating (% inhibition)
Description: as §1, §2, §3, §4, §5

Seedling Johnsongrass = details: Sorghum halepense, pre-emergence, Sejg, 11.2 kg/ha, 10-14 days, read-out: herbicidal rating (% inhibition)
Description: as §1, §2, §3, §4, §5

Wild Buckwheat = details: Fallopia convolvulus, pre-emergence, Wibw, 11.2 kg/ha, 10-14 days, read-out: herbicidal rating (% inhibition)
Description: as §1, §2, §3, §4, §5

Barnyardgrass = details: Echinochloa crus-galli, pre-emergence, Bygr, 11.2 kg/ha, 10-14 days, read-out: herbicidal rating (% inhibition)
Summary of the method: (§6)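 Percent inhibition per species, scored on a rating scale, after pre-emergent soil incorporation: test compound in acetone or water carrier mixed into cover soil, layered over seeded topsoil or vegetative propagules.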

Cocklebur = details: Xanthium strumarium, pre-emergence, Cobu, 11.2 kg/ha, 10-14 days, read-out: herbicidal rating (% inhibition)
Summary of the method: as §6

Downy Brome = details: Bromus tectorum, pre-emergence, Dobr, 11.2 kg/ha, 10-14 days, read-out: herbicidal rating (% inhibition)
Summary of the method: as §6

Morningglory = details: Ipomoea, pre-emergence, Mogl, 11.2 kg/ha, 10-14 days, read-out: herbicidal rating (% inhibition)
Summary of the method: as §6

Velvetleaf = details: Abutilon theophrasti, pre-emergence, Vele, 11.2 kg/ha, 10-14 days, read-out: herbicidal rating (% inhibition)
Summary of the method: as §6

Yellow Nutsedge = details: Cyperus, pre-emergence, Yens, 11.2 kg/ha, 10-14 days, read-out: herbicidal rating (% inhibition)
Summary of the method: as §6

Row | Structure (SMILES) | inhibition at 11200 g/ha (Annual Bluegrass) | inhibition at 11200 g/ha (Indian Mustard) | inhibition at 11200 g/ha (Seedling Johnsongrass) | inhibition at 11200 g/ha (Wild Buckwheat) | inhibition at 11200 g/ha (Barnyardgrass) | inhibition at 11200 g/ha (Cocklebur) | inhibition at 11200 g/ha (Downy Brome) | inhibition at 11200 g/ha (Morningglory) | inhibition at 11200 g/ha (Velvetleaf) | inhibition at 11200 g/ha (Yellow Nutsedge)
1 | COC(=O)c1c(OC)nc(C(F)(F)F)c(C(=O)n2cc(C#N)cn2)c1CC(C)C [Compound 111, 3-pyridinecarboxylic acid, 5-[(4-cyano-1H-pyrazo1-1-yl)carbonyl]-2-methoxy-4-(2-methylpropyl)-6-(trifluoromethyl)-, methyl ester] | 75 to 100% | 75 to 100% | 75 to 100% | 75 to 100% | 75 to 100% | 0 to 24% | 50 to 74% | 75 to 100% | 75 to 100% | 0 to 24%
2 | COC(=O)c1c(OC)nc(C(F)(F)F)c(C2OCCO2)c1CC1CC1 [Compound 118, 3-pyridinecarboxylic acid, 4-(cyclopropylmethyl)-5-(1,3-dioxolan-2-yl)-2-methoxy-6-(trifluoromethyl)-, methyl ester] | 75 to 100% | 75 to 100% | 75 to 100% | 75 to 100% | 75 to 100% | 0 to 24% | 75 to 100% | 75 to 100% | 75 to 100% | 75 to 100%
3 | COC(=O)c1c(OC(Cl)(Cl)Cl)nc(C(F)(F)F)c(C(=O)OC)c1CC(C)C [Compound 96, 3,5-pyridinedicarboxylic acid, 4-(2-methylpropyl)-2-(trichloromethoxy)-6-(trifluoromethyl)-, dimethyl ester] | 75 to 100% | 75 to 100% | 75 to 100% | 75 to 100% | 75 to 100% | 0 to 24% | 50 to 74% | 75 to 100% | 75 to 100% | 0 to 24%
4 | COC(=O)c1c(OC)nc(C(F)(F)F)c(C(=O)SC)c1CC1CC1 [Compound 119, 3-pyridinecarboxylic acid, 4-(cyclopropylmethyl)-2-methoxy-5-[(methylthio)carbonyl]-6-(trifluoromethyl)-, methyl ester] | 75 to 100% | 75 to 100% | 75 to 100% | 75 to 100% | 75 to 100% | 50 to 74% | 75 to 100% | 75 to 100% | 75 to 100% | 75 to 100%
5 | COc1nc(C(F)(F)F)c(C(=O)Cl)c(CC(C)C)c1C(=O)SC [Compound 133, 3-pyridinecarbothioic acid, 5-(chlorocarbonyl)-2-methoxy-4-(2-methylpropyl)-6-(trifluoromethyl)-, S-methyl ester] | 0 to 24% | 25 to 49% | 0 to 24% | 0 to 24% | 0 to 24% | 0 to 24% | 0 to 24% | 0 to 24% | 0 to 24% | 0 to 24%
6 | COC(=O)c1c(OC)nc(C(F)(F)F)c(-c2cnco2)c1CC(C)C [Compound 114, 3-pyridinecarboxylic acid, 2-methoxy-4-(2-methylpropyl)-5-(5-oxazolyl)-6-(trifluoromethyl)-, methyl ester] | 75 to 100% | 75 to 100% | 75 to 100% | 75 to 100% | 75 to 100% | 0 to 24% | 75 to 100% | 50 to 74% | 75 to 100% | 25 to 49%
7 | COC(=O)c1c(OC)nc(C(F)(F)F)c(C(=O)N2CCCO2)c1CC(C)C [Compound 132, 3-pyridinecarboxylic acid, 5-(2-isoxazolidinecarbonyl)-2-methoxy-4-(2-methylpropyl)-6-(trifluoromethyl)-, methyl ester] | 75 to 100% | 75 to 100% | 75 to 100% | 75 to 100% | 75 to 100% | 0 to 24% | 75 to 100% | 50 to 74% | 75 to 100% | 0 to 24%
8 | COC(=O)c1c(OC)nc(C(F)(F)F)c(C=NCCO)c1CC(C)C [Compound 128] | 75 to 100% | 75 to 100% | 75 to 100% | 50 to 74% | 75 to 100% | 0 to 24% | 75 to 100% | 50 to 74% | 25 to 49% | 0 to 24%
9 | COC(=O)c1c(OC)nc(C(F)(F)F)c(C(=O)n2cc(N)cn2)c1CC(C)C [Compound 108, 3-pyridinecarboxylic acid, 5-[(4-amino-1H-pyrazo1-1-yl)carbonyl]-2-methoxy-4-(2-methylpropyl)-6-(trifluoromethyl)-, methyl ester] | 75 to 100% | 75 to 100% | 50 to 74% | 75 to 100% | 75 to 100% | 0 to 24% | 0 to 24% | 0 to 24% | 50 to 74% | 0 to 24%
10 | COc1nc(C(F)(F)F)c(C=O)c(CC(C)C)c1C(=O)SC [Compound 135, 3-pyridinecarbothioic acid, 5-formy1-2-methoxy-4-(2-methylpropyl)-6-(trifluoromethyl)-, S-methyl ester] | 75 to 100% | 75 to 100% | 50 to 74% | 25 to 49% | 75 to 100% | 0 to 24% | 75 to 100% | 0 to 24% | 50 to 74% | 0 to 24%
11 | COC(=O)c1c(OC)nc(C(F)(F)F)c(N=C2CCCO2)c1CC(C)C [Compound 121, 3-pyridinecarboxylic acid, 5-[(dihydro-2(3H)-furanylidene)amino]-2-methoxy-4-(2-methylpropyl)-6-(trifluoromethyl)-, methyl ester] | 75 to 100% | 75 to 100% | 75 to 100% | 75 to 100% | 75 to 100% | 75 to 100% | 75 to 100% | 50 to 74% | 75 to 100% | 50 to 74%
12 | C=C1CC(c2c(C(F)(F)F)nc(OC)c(C(=O)OC)c2CC(C)C)OC1=O (stereo not shown) [Compound 90, 3-pyridinecarboxylic acid, 5-(tetrahydro-4-methylene-5-oxo-2-furanyl)-2-methoxy-4-(2-methylpropyl)-6-(trifluoromethyl)-, methyl ester] | 75 to 100% | 0 to 24% | 25 to 49% | 0 to 24% | 50 to 74% | 0 to 24% | 50 to 74% | 0 to 24% | 0 to 24% | 0 to 24%
13 | COC(=O)c1c(OC)nc(C(F)(F)F)c(C(=O)n2cncn2)c1C1CCC1 [Compound 141] | 75 to 100% | 75 to 100% | 75 to 100% | 75 to 100% | 75 to 100% | 0 to 24% | 75 to 100% | 75 to 100% | 75 to 100% | 50 to 74%

From patent US5391540A, “Substituted pyridine compounds” (Rohm and Haas Company, priority 1993, dated 1995)
